These results are taken from patent US10888547B2, “Amorphous and a crystalline form of genz 112638 hemitartrate as inhibitor of glucosylceramide synthase” (Genzyme Corporation, priority 2009, dated 2021).

Like-named read-outs stand apart in the source and are kept apart here. Where only a bound is given, the exact number is not on record here.

Series [1] has as its target T1, glucosylceramide synthase (Homo sapiens, UniProt Q16739).
T1 construct: microsomes were prepared from human melanoma A375 cells by sonication and centrifugation; endogenous in cells; host or cells: human melanoma A375 cells (microsomes)
T1 sequence (Q16739 1-394): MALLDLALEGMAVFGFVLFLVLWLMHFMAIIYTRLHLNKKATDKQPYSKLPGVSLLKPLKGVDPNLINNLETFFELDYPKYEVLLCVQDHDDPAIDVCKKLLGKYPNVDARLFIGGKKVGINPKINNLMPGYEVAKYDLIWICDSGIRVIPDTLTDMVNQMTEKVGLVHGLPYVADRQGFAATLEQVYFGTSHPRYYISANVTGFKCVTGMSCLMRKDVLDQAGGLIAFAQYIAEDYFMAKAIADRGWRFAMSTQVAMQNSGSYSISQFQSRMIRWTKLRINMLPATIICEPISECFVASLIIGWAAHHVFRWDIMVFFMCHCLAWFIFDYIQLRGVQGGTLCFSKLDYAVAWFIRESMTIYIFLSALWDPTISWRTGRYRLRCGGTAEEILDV
Description: Glucosylceramide synthase inhibition in microsomes from human melanoma A375 cells. It counts as biochemical. On the procedure:
An alternative assay for activity measured inhibition of glucosylceramide synthase in human cell derived microsomes. In this assay, microsomes were prepared from human melanoma A375 cells by sonication and centrifugation. […] Following the incubation, fluorescently labeled glucosylceramide and unreacted ceramide were separated and quantitated by reverse-phase HPLC and fluorescence detection.

Series [2] deals with T2, Lysosomal glucocerebrosidase (GBA1) (Homo sapiens, UniProt P04062).
T2 construct: endogenous in cells; K562 cells for the FACS assay
T2 sequence (P04062 40-536): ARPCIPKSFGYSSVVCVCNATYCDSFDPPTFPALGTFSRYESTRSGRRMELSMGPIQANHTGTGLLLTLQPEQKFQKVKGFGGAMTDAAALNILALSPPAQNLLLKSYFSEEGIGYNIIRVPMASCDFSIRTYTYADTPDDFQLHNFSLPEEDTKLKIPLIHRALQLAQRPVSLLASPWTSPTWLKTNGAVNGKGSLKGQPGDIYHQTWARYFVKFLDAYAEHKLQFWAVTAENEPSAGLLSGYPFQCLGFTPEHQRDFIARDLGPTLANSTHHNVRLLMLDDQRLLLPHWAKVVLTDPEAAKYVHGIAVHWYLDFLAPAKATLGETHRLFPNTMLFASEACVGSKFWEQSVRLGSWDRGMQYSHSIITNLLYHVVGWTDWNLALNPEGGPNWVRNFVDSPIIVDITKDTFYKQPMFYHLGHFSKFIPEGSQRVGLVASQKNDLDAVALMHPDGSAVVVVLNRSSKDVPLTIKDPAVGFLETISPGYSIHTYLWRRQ
As to the kind of experiment: Lysosomal glucocerebrosidase in intact human cells / FACS in K562 cells. Type of series: cell-based. On the procedure:
(§1) Non-lysosomal glucosylceramidase and lysosomal glucocerebrosidase were assayed in intact human cells using C6-NBD-glucosylceramide as substrate (see H. S. Overkleeft, et al. J. Biol. Chem. 273 (1998) 26522-26527, the entire teachings of which are incorporated herein by reference). Conduritol β epoxide (a specific inhibitor of lysosomal glucocerebrosidase) was used to differentiate lysosomal versus the non-lysosomal activity. Glucocerebrosidase activity was also measured by fluorescence-activated cell sorting (FACS). […] Cells were immediately chilled on ice and the fluorescence quantitated is above.

Another series relates to α-glucosidase I and II. As to the kind of experiment: α-Glucosidase I and II specificity assay. Type of series: biochemical.
In the next series the test system is GM1 in K562 cells. Description: Flow cytometry of cell surface GM1 in intact cells. Type of series: cell-based. Particulars: for IC50: Homo sapiens. The text has this: (§2) Since […] the first and rate-limiting step in the biosynthesis of glycosphingolipids, a flow cytometry assay that measured cell surface levels of GM 1 and GM3 was used to indirectly assess the activity of the inhibitor in intact cells.
(In general: Flow cytometry measures light scatter and fluorescence of single cells or particles in a stream.)

The subject of the next series is GM3 in B16/F10 cells. As to the kind of experiment: Flow cytometry of cell surface GM3 in intact cells. Type of series: cell-based.
From the text: as §2

For series [3], the target named is T3, Non-lysosomal glucosylceramidase (GBA2) (Homo sapiens, UniProt Q9HCG7).
T3 construct: were assayed in intact human cells using C6-NBD-glucosylceramide as substrate; endogenous in cells
T3 sequence (Q9HCG7 1-927): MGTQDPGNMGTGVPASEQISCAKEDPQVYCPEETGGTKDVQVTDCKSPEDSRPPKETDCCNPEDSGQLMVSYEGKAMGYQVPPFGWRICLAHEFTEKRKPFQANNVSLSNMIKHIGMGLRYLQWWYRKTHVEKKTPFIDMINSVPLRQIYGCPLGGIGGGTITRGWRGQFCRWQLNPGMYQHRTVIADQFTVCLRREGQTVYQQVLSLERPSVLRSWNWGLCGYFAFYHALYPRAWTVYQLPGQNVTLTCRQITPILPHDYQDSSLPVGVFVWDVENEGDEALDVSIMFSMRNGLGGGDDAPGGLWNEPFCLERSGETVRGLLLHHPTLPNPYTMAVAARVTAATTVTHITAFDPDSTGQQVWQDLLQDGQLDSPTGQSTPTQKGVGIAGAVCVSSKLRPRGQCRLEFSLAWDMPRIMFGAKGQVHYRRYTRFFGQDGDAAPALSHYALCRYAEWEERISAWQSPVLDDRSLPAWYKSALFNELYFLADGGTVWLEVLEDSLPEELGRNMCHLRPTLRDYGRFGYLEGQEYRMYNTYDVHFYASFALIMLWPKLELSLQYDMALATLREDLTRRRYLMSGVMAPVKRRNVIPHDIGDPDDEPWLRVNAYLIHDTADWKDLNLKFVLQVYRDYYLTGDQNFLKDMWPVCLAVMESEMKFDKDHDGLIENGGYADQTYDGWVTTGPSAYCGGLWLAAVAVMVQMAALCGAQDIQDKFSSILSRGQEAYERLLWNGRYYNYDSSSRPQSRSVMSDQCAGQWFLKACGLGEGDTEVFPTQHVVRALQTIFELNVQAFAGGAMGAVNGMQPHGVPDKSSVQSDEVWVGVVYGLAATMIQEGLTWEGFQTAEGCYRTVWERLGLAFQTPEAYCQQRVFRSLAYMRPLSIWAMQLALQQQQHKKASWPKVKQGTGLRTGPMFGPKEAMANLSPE
Description: Non-lysosomal glucosylceramidase in intact human cells, C6-NBD-glucosylceramide substrate. Type of series: cell-based. Particulars: read-out: Enzyme specificities, IC50: Non-lysosomal glucosylceramidase (GBA2). On the procedure:
as §1

One may read the IC50 as the concentration needed to halve the response being measured.

Consider `CCCCCCCC(=O)N[C@H](CN1CCCC1)[C@H](O)c1ccc2c(c1)OCCO2` [Formula (I) Hemitartrate], for which the “differential in concentration required to inhibit glucosylceramide synthase compared to any of the other enzymes tested” value in series [1] is reported as “approximately 40,000”. The “inhibition of glucocerebrosidase activity” value in series [2] (at the effective dose) was “no measurable inhibition”. The IC50 in series [2] (read-out: Enzyme specificities, IC50: Lysosomal glucocerebrosidase (GBA1)) is greater than 2500 µM; on α-glucosidase I and II (read-out: Enzyme specificities, IC50: α-Glucosidase I and II), greater than 2500 µM; in the series with GM1 in K562 cells (K562 cells, 72 h incubation, printed range 14-34 nM, read-out: mean IC50 for inhibiting the cell surface presentation of GM1), 0.024 µM; in the series with GM1 in K562 cells (Table 8, GM1 in K562 cells, read-out: Substrate inhibition potency (in vitro IC50)) it was roughly 0.024 µM; in the series with GM3 in B16/F10 cells (Mus musculus, 72 h incubation, printed range 12-48 nM, read-out: mean IC50 for inhibiting the cell surface presentation of GM3) it was 0.029 µM; in series [3] it was 1600 µM. Besides, the “inhibition of lysosomal glucocerebrosidase” value in series [2] (up to the highest concentration of 2500 μM) was “no inhibition”. In the series with α-glucosidase I and II (concentrations up to 2500 μM), the “inhibition of α-glucosidase I and II” value was “No detectable inhibition”. The cellular toxicity entry is “No overt cellular toxicity” in the series on GM1 in K562 cells (K562 cells, up to the highest dose (0.6-1000 nM), 72 h) and “No overt cellular toxicity” in the series on GM3 in B16/F10 cells (up to the highest dose (0.6-1000 nM), 72 h).
